# Measured values as given in patent publication US11919859B2, “Herbicidal mixture, composition and method” (FMC Corporation, priority 2017, dated 2024).
# Legend:
# Type in all cases: in vivo
# [1] = test system: japonica rice (ORYSA, Oryza sativa); experiment: Test A flooded greenhouse test, japonica rice (crop)
# Excerpt: (§1) Seeds of Asian sprangletop (LEPCH, Leptochloa chinensis), smallflower umbrella sedge (CYPDI, Cyperus difformis), monochoria (MOOVA, Monochoria vaginalis) and ducksalad (HETLI, Heteranthera limosa) were sown on the soil surface in four separate quadrants of 16-cm tubs filled with steam pasteurized Tama soil. Simultaneously, plantings of barnyardgrass (ECHCG, Echinochloa crus-galli), japonica rice (ORYSA, Oryza sativa) and late watergrass (ECHPH, Echinochloa phyllopogon) were established in separate “plug” flats. Plants were grown in a greenhouse using supplemental lighting to maintain a photoperiod of approximately 16 h; daytime and nighttime temperatures were approximately 27-30° C. and 24-27° C., respectively. After 8 d, barnyardgrass, rice and late watergrass plants were transplanted in 3 quadrants of separate tub, and the water level was adjusted to a final depth of 3 cm. Herbicide application of Cmpd. No. 1 and florpyrauxifen-benzyl (CAS Registry No. 1390661-72-9; 439.2 g/mol) timing was targeted at the 2.0 to 2.5 leaf stage and the plants were treated with test chemicals formulated in a non-phytotoxic solvent. Treated plants and controls were maintained in a greenhouse for 14 d, after which time all species were compared to controls and visually evaluated. Plant response ratings are summarized in Table A, and are based on a scale of 0 to 100 where 0 is no effect and 100 is complete control and is the mean of duplicate ratings. A dash (-) response means no test result.
# Colby's Equation was used to determine the herbicidal effects expected from the mixtures. […] “Obsd.” is the observed effect and “Exp.” is expected effect calculated from Colby's Equation.
# [2] = test system: monochoria (MOOVA, Monochoria vaginalis); experiment: Test A flooded greenhouse test, monochoria; details: 14 d
# Excerpt: as §1
# (§2) Colby's Equation was used to determine the herbicidal effects expected from the mixtures. Colby's Equation (Colby, S. R. “Calculating Synergistic and Antagonistic Responses of Herbicide Combinations,” Weeds 1967 15(1), pp 20-22) calculates the expected additive effect of herbicidal mixtures and for two active ingredients is of the form: Pa+b=Pa+Pb−(PaPb/100) wherein Pa+b is the percentage effect of the mixture expected from additive contribution of the individual components: • Pa is the observed percentage effect of the first active ingredient at the same use rate as in the mixture, and • Pb is the observed percentage effect of the second active ingredient at the same use rate as in the mixture. The results and additive effects expected from Colby's Equation are listed in Table A. Application rates are grams of active ingredient per hectare (g a.i./ha). “Obsd.” is the observed effect and “Exp.” is expected effect calculated from Colby's Equation.
# [3] = test system: barnyardgrass (ECHCG, Echinochloa crus-galli); experiment: Test A flooded greenhouse test, barnyardgrass; details: 14 d
# Excerpt: as §1, §2
# [4] = test system: smallflower umbrella sedge (CYPDI, Cyperus difformis); experiment: Test A flooded greenhouse test, smallflower umbrella sedge; details: 14 d
# Excerpt: as §1, §2
# [5] = test system: ducksalad (HETLI, Heteranthera limosa); experiment: Test A flooded greenhouse test, ducksalad; details: 14 d
# Excerpt: as §1, §2
# [6] = test system: Asian sprangletop (LEPCH, Leptochloa chinensis); experiment: Test A flooded greenhouse test, Asian sprangletop; details: 14 d
# Excerpt: as §1, §2
# [7] = test system: late watergrass (ECHPH, Echinochloa phyllopogon); experiment: Test A flooded greenhouse test, late watergrass; details: 14 d
# Excerpt: as §1, §2
# [8] = florpyrauxifen-benzyl 2 g a.i./ha alone
# [9] = florpyrauxifen-benzyl 4 g a.i./ha alone
structure (smiles),measurement,setting,value
CN1C[C@H](c2cccc(C(F)(F)F)c2)[C@@H](C(=O)Nc2ccccc2F)C1=O [Cmpd. No. 1],ORYSA Obsd. plant response rating (0 to 100),[1]; in vivo,0
same,MOOVA Obsd. plant response rating (0 to 100),[2]; Cmpd. No. 1 50 g a.i./ha alone,70
same,MOOVA Obsd. plant response rating (0 to 100),[2]; Cmpd. No. 1 75 g a.i./ha alone,70
same,ECHCG Obsd. plant response rating (0 to 100),[3]; Cmpd. No. 1 50 g a.i./ha alone,70
same,ECHCG Obsd. plant response rating (0 to 100),[3]; Cmpd. No. 1 75 g a.i./ha alone,70
same,CYPDI Obsd. plant response rating (0 to 100),[4]; Cmpd. No. 1 50 g a.i./ha alone,0
same,CYPDI Obsd. plant response rating (0 to 100),[4]; Cmpd. No. 1 75 g a.i./ha alone,0
same,HETLI Obsd. plant response rating (0 to 100),[5]; Cmpd. No. 1 50 g a.i./ha alone,70
same,HETLI Obsd. plant response rating (0 to 100),[5]; Cmpd. No. 1 75 g a.i./ha alone,70
same,LEPCH Obsd. plant response rating (0 to 100),[6]; Cmpd. No. 1 50 g a.i./ha alone,75
same,LEPCH Obsd. plant response rating (0 to 100),[6]; Cmpd. No. 1 75 g a.i./ha alone,85
same,ECHPH Obsd. plant response rating (0 to 100),[7]; Cmpd. No. 1 50 g a.i./ha alone,75
same,ECHPH Obsd. plant response rating (0 to 100),[7]; Cmpd. No. 1 75 g a.i./ha alone,85
"COc1c(Cl)ccc(-c2nc(C(=O)OCc3ccccc3)c(Cl)c(N)c2F)c1F [florpyrauxifen-benzyl, 2-pyridinecarboxylic acid, 4-amino-3-chloro-6-(4-chloro-2-fluoro-3-methoxyphenyl)-5-fluoro-, phenylmethyl ester, reference compound]",ORYSA Obsd. plant response rating (0 to 100),"[1]; florpyrauxifen-benzyl 2 g a.i./ha alone, 14 d",0
same,ORYSA Obsd. plant response rating (0 to 100),"[1]; florpyrauxifen-benzyl 4 g a.i./ha alone, 14 d",0
same,MOOVA Obsd. plant response rating (0 to 100),[2]; [8],90
same,MOOVA Obsd. plant response rating (0 to 100),[2]; [9],100
same,ECHCG Obsd. plant response rating (0 to 100),[3]; [8],0
same,ECHCG Obsd. plant response rating (0 to 100),[3]; [9],0
same,CYPDI Obsd. plant response rating (0 to 100),[4]; [8],80
same,CYPDI Obsd. plant response rating (0 to 100),[4]; [9],85
same,HETLI Obsd. plant response rating (0 to 100),[5]; [8],90
same,HETLI Obsd. plant response rating (0 to 100),[5]; [9],100
same,LEPCH Obsd. plant response rating (0 to 100),[6]; [8],0
same,LEPCH Obsd. plant response rating (0 to 100),[6]; [9],0
same,ECHPH Obsd. plant response rating (0 to 100),[7]; [8],0
same,ECHPH Obsd. plant response rating (0 to 100),[7]; [9],0
